Data taken from patent US11452725B2, “Chiral diaryl macrocycles and uses thereof” (TURNING POINT THERAPEUTICS, INC., priority 2015, dated 2022).
pIC50: −log10 of the molar value.

How the values were obtained:
FYN = target: T1, FYN (Homo sapiens, UniProt P06241); assay: Biochemical kinase assay (Reaction Biology); details: 10 μM ATP
T1 construct: purchased Reaction Biology Corporation

YES = target: T2, YES (Homo sapiens, UniProt P07947); assay: Biochemical kinase assay (Reaction Biology); details: 10 μM ATP
T2 construct: purchased Reaction Biology Corporation

ARK5 = ARK5 (Homo sapiens, UniProt O60285); assay: Biochemical kinase assay (Reaction Biology); details: 10 μM ATP
DDR1 = target: T3, DDR1 (Homo sapiens, UniProt Q08345); assay: Biochemical kinase assay (Reaction Biology); details: 10 μM ATP
T3 construct: purchased Reaction Biology Corporation

SNARK = target: T4, SNARK (Homo sapiens, UniProt Q9H093); assay: Biochemical kinase assay (Reaction Biology); details: 10 μM ATP
T4 construct: purchased Reaction Biology Corporation

JAK1 = target: T5, JAK1 (Homo sapiens, UniProt P23458); assay: Biochemical kinase assay (Reaction Biology); details: 10 μM ATP
T5 construct: purchased Reaction Biology Corporation (contract assay)

BTK = target: T6, BTK (Homo sapiens, UniProt Q06187); assay: Biochemical kinase assay (Reaction Biology); details: 10 μM ATP
T6 construct: purchased Reaction Biology Corporation (contract assay)

EPHA1 = target: T7, EPHA1 (Homo sapiens, UniProt P21709); assay: Biochemical kinase assay (Reaction Biology); details: 10 μM ATP
T7 construct: purchased Reaction Biology Corporation (contract assay)

PYK2 = target: T8, PYK2 (Homo sapiens, UniProt Q14289); assay: Biochemical kinase assay (Reaction Biology); details: 10 μM ATP
T8 construct: purchased Reaction Biology Corporation (contract assay)

AXL = target: T9, AXL (Homo sapiens, UniProt P30530); assay: Biochemical kinase assay (Reaction Biology); details: 10 μM ATP
T9 construct: purchased Reaction Biology Corporation (contract assay)

HCC78 cell line = assay: Cell proliferation assay (CellTiter-Glo); assay type: cell-based; details: Homo sapiens, 72 hours, SLC34A2-ROS1 fusion gene
SET-2 cell line = assay: Cell proliferation assay (CellTiter-Glo); assay type: cell-based; details: Homo sapiens, 72 hours, JAK2 V617F mutation
[1] = test system: Ba/F3 EML4-ALK G1202R cell line; assay: Cell proliferation assay (CellTiter-Glo); assay type: cell-based; details: Mus musculus, 72 hours
[2] = test system: Ba/F3 TPR-ALK wild type cell line; assay: Cell proliferation assay at Advanced Cellular Dynamics (CellTiter-Glo); assay type: cell-based; details: Mus musculus, BaF3, 48 hours
[3] = test system: Ba/F3 CD74-ROS1 G2032R cell line; assay: Cell proliferation assay (CellTiter-Glo); assay type: cell-based; details: Mus musculus, BaF3; 72 hours
Ba/F3 + IL3 parental = assay: Cell proliferation assay (CellTiter-Glo); assay type: cell-based; details: Mus musculus, BaF3; parental cells with IL3
[4] = test system: Ba/F3 TEL-TRKC (ETV6-TRKC) G623R cell line; assay: Cell proliferation assay (CellTiter-Glo); assay type: cell-based; details: Mus musculus, BaF3; 72 hours
AKT [5] = assay: Immunoblotting downstream signaling, HCC78 cells; assay type: cell-based; details: Homo sapiens; HCC78 cell line; read-out: downstream AKT phosphorylation IC50
Description: (§1) NSCLC cell line H2228 (harboring endogenous EML4-ALK fusion gene), HCC78 cells (harboring endogenous SLC34A2-ROS1 fusion gene), Karpas-299 cells (harboring endogenous NPM-ALK fusion gene) or SET-2 (harboring endogenous JAK2V617F activating mutation) were cultured in RPMI medium, and KM12 (harboring endogenous TPM3-TRKA fusion gene) cell line was cultured in DMEM medium, both supplemented with 10% fetal bovine serum and 100 U/mL of penicillin/streptomycin. Ba/F3 and NIH3T3 cells stably expressing ALK or ROS1 (WT or mutant) were culture as mentioned above. […] Protein lysates (approximately 20 μg) was resolved on 4-12% Bolt Bis-Tris precasted gels with MES running buffer (Life Technologies), transferred to nitrocellulose membranes using Trans-Blot Turbo Transfer System (Bio-Rad) and detected with antibodies targeting phosphorylated ALK Y1604 (Cell Signaling Technology), total ALK (Cell Signaling Technology), phosphorylated ROS1 and total ROS1 (Cell Signaling Technology), phosphorylated TRK A/B (Cell Signaling Technology), total TRKA antibody (Santa Cruz Biotechnology), phosphorylated STAT3 and STAT5, total STAT3 and STAT5 (Cell Signaling Technology), phosphorylated AKT (Cell Signaling Technology), total AKT (Cell Signaling Technology), phosphorylated ERK (Cell Signaling Technology), total ERK (Cell Signaling Technology) and Tubulin (Sigma). […]

STAT3 = assay: Immunoblotting downstream signaling, HCC78 cells; assay type: cell-based; details: Homo sapiens; HCC78 cell line; read-out: downstream STAT3 phosphorylation IC50
Description: as §1

AKT [6] = assay: Immunoblotting downstream signaling, KM12 cells; assay type: cell-based; details: Homo sapiens; KM12 cell line; read-out: downstream AKT phosphorylation IC50
Description: as §1

ERK = assay: Immunoblotting downstream signaling, KM12 cells; assay type: cell-based; details: Homo sapiens; KM12 cell line; read-out: downstream ERK phosphorylation IC50
Description: as §1

KM12 tumors = assay: KM12 colorectal cancer subcutaneous xenograft model; assay type: in vivo, athymic nude mice; details: seven days
Ba/F3 EML4-ALK WT tumors = assay: Ba/F3 EML4-ALK WT subcutaneous xenograft model; assay type: in vivo, SCID/Beige mice; details: 14 days
[7] = Example 13: 15 mg/kg BID orally
[8] = Example 13: 75 mg/kg BID orally

T4 sequence (Q9H093 whole entry): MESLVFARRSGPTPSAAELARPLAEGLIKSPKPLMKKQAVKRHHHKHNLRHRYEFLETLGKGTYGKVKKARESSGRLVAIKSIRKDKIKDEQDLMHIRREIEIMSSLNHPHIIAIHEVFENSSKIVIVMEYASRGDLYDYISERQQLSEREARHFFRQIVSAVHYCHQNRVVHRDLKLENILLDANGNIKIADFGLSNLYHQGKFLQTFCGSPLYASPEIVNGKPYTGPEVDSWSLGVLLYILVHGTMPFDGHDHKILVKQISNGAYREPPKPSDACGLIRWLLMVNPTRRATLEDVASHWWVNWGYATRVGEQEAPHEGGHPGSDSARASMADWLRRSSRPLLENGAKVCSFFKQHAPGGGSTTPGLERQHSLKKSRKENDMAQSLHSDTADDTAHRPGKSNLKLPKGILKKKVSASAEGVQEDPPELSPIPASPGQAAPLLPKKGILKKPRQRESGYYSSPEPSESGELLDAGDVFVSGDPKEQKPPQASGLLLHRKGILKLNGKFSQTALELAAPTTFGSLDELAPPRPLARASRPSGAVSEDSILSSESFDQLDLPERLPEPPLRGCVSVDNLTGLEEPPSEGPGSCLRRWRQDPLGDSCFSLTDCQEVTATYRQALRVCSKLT
T6 sequence (Q06187 whole entry): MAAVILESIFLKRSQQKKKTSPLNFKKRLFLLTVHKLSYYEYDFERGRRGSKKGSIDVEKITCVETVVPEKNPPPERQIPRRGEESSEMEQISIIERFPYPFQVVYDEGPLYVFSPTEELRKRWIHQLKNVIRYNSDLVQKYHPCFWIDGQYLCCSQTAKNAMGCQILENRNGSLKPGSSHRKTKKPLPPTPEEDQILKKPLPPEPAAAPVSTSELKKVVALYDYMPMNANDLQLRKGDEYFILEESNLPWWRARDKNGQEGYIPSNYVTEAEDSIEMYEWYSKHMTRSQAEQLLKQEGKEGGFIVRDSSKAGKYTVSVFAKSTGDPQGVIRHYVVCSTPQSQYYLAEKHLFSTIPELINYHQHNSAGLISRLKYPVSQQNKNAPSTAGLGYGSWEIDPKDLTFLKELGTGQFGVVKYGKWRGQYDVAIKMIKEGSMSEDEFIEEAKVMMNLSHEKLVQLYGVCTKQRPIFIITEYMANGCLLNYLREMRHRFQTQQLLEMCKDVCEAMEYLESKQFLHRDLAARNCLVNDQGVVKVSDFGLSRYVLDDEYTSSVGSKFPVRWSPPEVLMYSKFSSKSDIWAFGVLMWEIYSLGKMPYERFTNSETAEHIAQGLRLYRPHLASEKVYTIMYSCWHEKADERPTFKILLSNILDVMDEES
T8 sequence (Q14289 whole entry): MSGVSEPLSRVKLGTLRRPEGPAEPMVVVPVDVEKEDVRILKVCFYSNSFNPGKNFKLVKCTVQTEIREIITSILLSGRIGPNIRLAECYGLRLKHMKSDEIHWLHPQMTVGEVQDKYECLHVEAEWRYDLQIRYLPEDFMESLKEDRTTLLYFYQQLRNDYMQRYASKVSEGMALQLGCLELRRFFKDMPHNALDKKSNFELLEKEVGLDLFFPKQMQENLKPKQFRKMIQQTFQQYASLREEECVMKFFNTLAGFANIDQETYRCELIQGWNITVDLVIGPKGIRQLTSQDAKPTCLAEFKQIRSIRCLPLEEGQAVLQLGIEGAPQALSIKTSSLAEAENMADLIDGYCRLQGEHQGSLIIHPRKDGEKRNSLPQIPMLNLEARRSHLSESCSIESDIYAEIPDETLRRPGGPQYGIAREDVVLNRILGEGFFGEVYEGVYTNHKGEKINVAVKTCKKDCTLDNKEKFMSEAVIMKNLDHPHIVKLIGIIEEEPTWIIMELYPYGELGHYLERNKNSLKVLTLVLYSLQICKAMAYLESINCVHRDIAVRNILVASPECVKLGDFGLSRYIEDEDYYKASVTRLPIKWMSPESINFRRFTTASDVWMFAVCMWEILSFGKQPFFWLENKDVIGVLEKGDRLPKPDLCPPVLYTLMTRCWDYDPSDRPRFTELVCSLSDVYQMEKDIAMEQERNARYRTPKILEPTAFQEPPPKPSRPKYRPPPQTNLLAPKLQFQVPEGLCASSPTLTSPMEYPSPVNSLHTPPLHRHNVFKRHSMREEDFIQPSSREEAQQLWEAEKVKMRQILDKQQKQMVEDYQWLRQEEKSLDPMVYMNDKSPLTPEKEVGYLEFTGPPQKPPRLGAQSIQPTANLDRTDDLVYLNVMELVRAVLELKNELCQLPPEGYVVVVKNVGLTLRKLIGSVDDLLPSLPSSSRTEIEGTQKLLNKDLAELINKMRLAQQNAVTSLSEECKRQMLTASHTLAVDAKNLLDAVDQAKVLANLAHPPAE
T1 sequence (P06241 whole entry): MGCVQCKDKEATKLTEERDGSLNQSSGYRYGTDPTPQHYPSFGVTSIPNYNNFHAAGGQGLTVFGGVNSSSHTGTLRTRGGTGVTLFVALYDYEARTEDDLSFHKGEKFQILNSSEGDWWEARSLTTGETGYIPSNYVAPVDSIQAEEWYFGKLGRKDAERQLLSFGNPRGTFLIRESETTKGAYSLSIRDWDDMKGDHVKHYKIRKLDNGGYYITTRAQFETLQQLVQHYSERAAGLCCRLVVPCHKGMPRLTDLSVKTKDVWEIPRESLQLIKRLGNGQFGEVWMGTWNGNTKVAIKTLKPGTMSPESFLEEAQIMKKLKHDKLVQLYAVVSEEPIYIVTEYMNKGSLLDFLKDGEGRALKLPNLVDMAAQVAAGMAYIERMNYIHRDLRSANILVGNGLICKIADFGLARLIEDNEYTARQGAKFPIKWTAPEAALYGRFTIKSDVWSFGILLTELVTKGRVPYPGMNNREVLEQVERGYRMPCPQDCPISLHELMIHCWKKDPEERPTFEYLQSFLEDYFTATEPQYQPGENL
T2 sequence (P07947 whole entry): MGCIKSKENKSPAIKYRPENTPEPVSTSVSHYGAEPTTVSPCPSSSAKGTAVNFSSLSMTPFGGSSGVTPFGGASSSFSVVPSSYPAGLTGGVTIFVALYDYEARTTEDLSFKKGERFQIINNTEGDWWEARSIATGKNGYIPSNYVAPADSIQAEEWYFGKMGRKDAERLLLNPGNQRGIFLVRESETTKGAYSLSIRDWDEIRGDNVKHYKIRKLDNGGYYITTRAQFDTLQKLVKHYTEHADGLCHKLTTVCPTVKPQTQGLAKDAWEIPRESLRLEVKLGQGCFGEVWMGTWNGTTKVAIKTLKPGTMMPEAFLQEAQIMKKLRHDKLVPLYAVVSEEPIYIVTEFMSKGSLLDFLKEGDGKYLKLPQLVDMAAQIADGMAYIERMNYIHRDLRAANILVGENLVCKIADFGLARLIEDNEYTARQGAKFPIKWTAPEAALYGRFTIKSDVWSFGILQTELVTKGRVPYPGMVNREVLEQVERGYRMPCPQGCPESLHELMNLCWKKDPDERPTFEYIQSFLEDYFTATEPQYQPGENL
T7 sequence (P21709 26-976): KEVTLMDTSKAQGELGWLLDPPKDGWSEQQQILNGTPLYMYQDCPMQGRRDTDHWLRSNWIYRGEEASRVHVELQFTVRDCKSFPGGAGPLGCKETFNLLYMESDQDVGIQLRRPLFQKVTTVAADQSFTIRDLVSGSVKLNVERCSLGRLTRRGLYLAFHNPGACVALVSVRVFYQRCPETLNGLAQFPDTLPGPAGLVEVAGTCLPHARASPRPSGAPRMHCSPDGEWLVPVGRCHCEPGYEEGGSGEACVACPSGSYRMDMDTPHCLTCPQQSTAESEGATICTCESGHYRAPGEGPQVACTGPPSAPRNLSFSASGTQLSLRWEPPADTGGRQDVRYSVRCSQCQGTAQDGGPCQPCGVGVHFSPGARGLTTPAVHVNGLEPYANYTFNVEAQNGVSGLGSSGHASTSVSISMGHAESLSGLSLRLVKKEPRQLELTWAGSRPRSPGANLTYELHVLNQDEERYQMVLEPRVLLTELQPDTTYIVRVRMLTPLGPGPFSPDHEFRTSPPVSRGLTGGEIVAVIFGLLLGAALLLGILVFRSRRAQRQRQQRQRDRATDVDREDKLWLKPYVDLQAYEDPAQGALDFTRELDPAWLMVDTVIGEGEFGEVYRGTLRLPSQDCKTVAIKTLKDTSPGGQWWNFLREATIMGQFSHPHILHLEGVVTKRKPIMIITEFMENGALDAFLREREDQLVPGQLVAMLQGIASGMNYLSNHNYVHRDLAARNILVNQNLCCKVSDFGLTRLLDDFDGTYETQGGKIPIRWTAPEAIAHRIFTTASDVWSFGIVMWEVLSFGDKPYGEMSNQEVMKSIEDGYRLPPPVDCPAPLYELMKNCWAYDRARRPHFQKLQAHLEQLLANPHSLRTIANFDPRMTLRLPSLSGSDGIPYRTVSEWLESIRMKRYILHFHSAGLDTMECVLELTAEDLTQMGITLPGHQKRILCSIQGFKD

## C[C@H]1CNC(=O)c2cnn3ccc(nc23)N[C@H](C)c2cc(F)ccc2O1 [Compound 1, (7S,13R)-11-fluoro-7,13-dimethyl-6,7,13,14-tetrahydro-1,15-ethenopyrazolo[4,3-f][1,4,8,10]benzoxatriazacyclotridecin-4(5H)-one]
FYN
  pIC50: 8.98
YES
  pIC50: 8.67
ARK5
  pIC50: […]
DDR1
  pIC50: 8.24
SNARK
  pIC50: 7.89
JAK1
  pIC50: 7.72
BTK
  pIC50: 7.63
EPHA1
  pIC50: 7.60
PYK2
  pIC50: 7.40
AXL
  pIC50: 6.83
HCC78 cell line
  pIC50: 9.52
SET-2 cell line
  pIC50: 6.77
[1]
  pIC50: 7.69
[2]
  pIC50: 7.92
[3]
  pIC50: […]
Ba/F3 + IL3 parental
  pIC50: 5.91
[4]
  pIC50: 8.52
AKT [5]
  pIC50: 8.52 to 9.00
STAT3
  pIC50: 8.52 to 9.00
AKT [6]
  pIC50: ~9.52
ERK
  pIC50: ~9.52
KM12 tumors; [7]
  mice exhibiting tumor regression: 8 of 8
  tumor regression (REG): 13%
KM12 tumors; [8]
  mice exhibiting tumor regression: 5 of 8
  tumor regression (REG): 11%
KM12 tumors; Example 15: 1 mg/kg BID orally
  Tumor growth inhibition (TGI): 77%
KM12 tumors; Example 15: 3 mg/kg BID orally
  mice exhibiting tumor regression: 2 of 10
KM12 tumors; Example 15: 15 mg/kg BID orally
  mice exhibiting tumor regression: 5 of 10
KM12 tumors; Example 15 dose dependent study: 15 mg/kg BID orally
  tumor regression (REG): 1%
Ba/F3 EML4-ALK WT tumors; 15 mg/kg/BID orally
  Tumor growth inhibition (TGI): 74%
Ba/F3 EML4-ALK WT tumors; 75 mg/kg BID orally
  mice exhibiting tumor regression: 6 of 8
  tumor regression (REG): 54%
